In ChEMBL document CHEMBL1135140, “Pyridazines. Part 28: 5-alkylidene-6-phenyl-3(2H)-pyridazinones, a new family of platelet aggregation inhibitors” (Bioorg Med Chem Lett, 2002) one finds IC50 data, which are given here for 5 molecules.

The test is described as follows: Tested for anti-platelet activity by turbidimetric method using thrombin as agonist in washed platelet. In kind it is functional.
Turning to `CCOC(=O)C(=Cc1cc(=O)[nH]nc1-c1ccccc1)C(=O)OCC`, the IC50 is 20 µM. In other words, the double-digit micromolar range.
With `O=C1C(CC[S+]([O-])c2ccccc2)C(=O)N(c2ccccc2)N1c1ccccc1` (stereo not given) [SULFINPYRAZONE] the figure was 696 µM.
With `COC(=O)C(=Cc1cc(=O)[nH]nc1-c1ccccc1)C(=O)OC` the figure was 45 µM; with `Clc1ccccc1CN1CCc2sccc2C1` [TICLOPIDINE], 1550 µM.
With `COC(=O)/C(=C/c1cc(O)nnc1-c1ccccc1)C(C)=O` the figure was 25 µM.
